Measurements reported in patent publication US9198433B2, “Substituted benzene fungicides” (E I DU PONT DE NEMOURS AND COMPANY, priority 2007, dated 2015).
Marks after values point to notes of the source that are not given here.

Key:
Type in all cases: in vivo
[1] = system: Erysiphe graminis f. sp. tritici; assay: Test A: wheat powdery mildew, preventive spray on wheat seedlings, disease rating
Text: (§1) The test compounds were first dissolved in acetone in an amount equal to 3% of the final volume and then suspended at the desired concentration (in ppm) in acetone and purified water (50/50 mix) containing 250 ppm of the surfactant Trem® 014 (polyhydric alcohol esters). The resulting test suspensions were then used in Tests A-L. Spraying a 200 ppm test suspension to the point of run-off on the test plants was the equivalent of an application rate of 500 g/ha. The test suspension was sprayed to the point of run-off on wheat seedlings. […] A dash (-) indicates no test results. All results are for 200 ppm except where followed by an “*”, which indicates 40 ppm or “**”, which indicates 50 ppm.

[2] = system: Puccinia recondita f. sp. tritici; assay: Test B: wheat leaf rust, preventive spray on wheat seedlings, disease rating
Text: as §1

[3] = system: Alternaria solani; assay: Test H: tomato early blight, preventive spray on tomato seedlings, disease rating
Text: (§2) The test compounds were first dissolved in acetone in an amount equal to 3% of the final volume and then suspended at the desired concentration (in ppm) in acetone and purified water (50/50 mix) containing 250 ppm of the surfactant Trem® 014 (polyhydric alcohol esters). The resulting test suspensions were then used in Tests A-L. Spraying a 200 ppm test suspension to the point of run-off on the test plants was the equivalent of an application rate of 500 g/ha. The test suspension was sprayed to the point of run-off on tomato seedlings. […] A dash (-) indicates no test results. All results are for 200 ppm except where followed by an “*”, which indicates 40 ppm or “**”, which indicates 50 ppm.

[4] = system: Septoria nodorum; assay: Test C: wheat glume blotch, preventive spray on wheat seedlings, disease rating
Text: as §1

[5] = system: Septoria tritici; assay: Test D: wheat leaf blotch, preventive spray on wheat seedlings, disease rating
Text: The test compounds were first dissolved in acetone in an amount equal to 3% of the final volume and then suspended at the desired concentration (in ppm) in acetone and purified water (50/50 mix) containing 250 ppm of the surfactant Trem® 014 (polyhydric alcohol esters). The resulting test suspensions were then used in Tests A-L. Spraying a 200 ppm test suspension to the point of run-off on the test plants was the equivalent of an application rate of 500 g/ha. The test suspension was sprayed to the point of run-off on wheat seedlings. The following day the seedlings were inoculated with a spore suspension of Septoria tritici (the causal agent of wheat leaf blotch) and incubated in a saturated atmosphere at 24° C. for 48 h, and then moved to a growth chamber at 20° C. for 19 days, after which time disease ratings were made. […] A dash (-) indicates no test results. All results are for 200 ppm except where followed by an “*”, which indicates 40 ppm or “**”, which indicates 50 ppm.

[6] = system: Botrytis cinerea; assay: Test F: tomato Botrytis, preventive spray on tomato seedlings, disease rating
Text: as §2

| SMILES | Percentage Disease Control, Test A ([1]; 40 ppm (*)) | Percentage Disease Control, Test B ([2]; 40 ppm (*)) | Percentage Disease Control, Test H ([3]; 40 ppm (*)) | Percentage Disease Control, Test C ([4]; 40 ppm (*)) | Percentage Disease Control, Test D ([5]; 40 ppm (*)) | Percentage Disease Control, Test F ([6]; 40 ppm (*)) | Percentage Disease Control, Test F ([6]; 200 ppm) [%] | Percentage Disease Control, Test A ([1]; 200 ppm) [%] | Percentage Disease Control, Test B ([2]; 200 ppm) [%] | Percentage Disease Control, Test H ([3]; 200 ppm) [%] | Percentage Disease Control, Test C ([4]; 200 ppm) [%] | Percentage Disease Control, Test D ([5]; 200 ppm) [%] |
| --- | --- | --- | --- | --- | --- | --- | --- | --- | --- | --- | --- | --- |
| COC(=O)NCc1cc(-c2ccn(-c3nccc(C(F)(F)F)n3)n2)ccc1Cl [Cmpd 87] | 82* % | 100* % | 9* % | 97* % | 99* % | 0* % |  |  |  |  |  |  |
| COC(=O)NCc1cc(-c2ccn(-c3ccc(Cl)c(C(F)(F)F)c3)n2)ccc1Cl [Cmpd 88] | 95* % | 97* % | 0* % | 100* % | 100* % | 0* % |  |  |  |  |  |  |
| COC(=O)NCc1cc(-c2ncn(-c3cccc(C(F)(F)F)c3)n2)ccc1Cl [Cmpd 89] | 100* % | 100* % | 89* % | 100* % | 100* % |  | 0 |  |  |  |  |  |
| COC(=O)NCc1cc(-c2ccn(-c3nc(SCc4ccccc4)ns3)n2)ccc1Cl [Cmpd 91] |  |  |  |  |  |  | 0 | 0 | 85 | 33 | 64 | 97 |
| COC(=O)NCc1cc(-c2ccn(-c3nc(OC)ns3)n2)ccc1Cl [Cmpd 92] |  | 97* % |  | 92* % |  |  | 0 | 82 |  | 15 |  | 72 |
| CCSc1nsc(-n2ccc(-c3ccc(Cl)c(CNC(=O)OC)c3)n2)n1 [Cmpd 93] | 93* % | 98* % |  | 100* % | 96* % |  | 0 |  |  | 15 |  |  |
| COC(=O)NCc1cc(-c2ccn(-c3nc(-c4ccc(C(F)(F)F)cc4)ns3)n2)ccc1Cl [Cmpd 94] |  |  |  |  |  |  | 0 | 0 | 17 | 0 | 0 | 40 |
| COC(=O)NCc1cc(-c2ccn(-c3nc(C4CC4)ns3)n2)ccc1Cl [Cmpd 95] | 100* % | 100* % |  | 100* % | 100* % | 90* % |  |  |  | 25 |  |  |
| COC(=O)NCc1cc(-c2ccn(-c3nc(C(C)(C)C)ns3)n2)ccc1Cl [Cmpd 96] | 100* % | 100* % |  | 100* % | 100* % |  | 0 |  |  | 59 |  |  |
| COC(=O)NCc1cc(-c2ncn(-c3ccc(Br)cc3)n2)ccc1Cl [Cmpd 97] | 98* % | 100* % |  | 100* % | 100* % |  | 0 |  |  | 85 |  |  |
| CCCCCc1cc(-c2ccc(Cl)c(CNC(=O)OC)c2)nn1C [Cmpd 98] |  | 98* % |  | 90* % |  |  | 0 | 91 |  | 0 |  | 98 |
| COC(=O)NCc1cc(-c2cc(-c3ccc(C(C)(C)C)cc3)[nH]n2)ccc1Cl [Cmpd 99] |  |  |  |  |  |  | 98 | 82 | 74 | 0 | 0 | 92 |
| COC(=O)NCc1cc(-c2cc(C(F)(F)F)[nH]n2)ccc1Cl [Cmpd 100] |  |  |  |  |  |  | 0 | 0 | 0 | 0 | 0 | 40 |
| COC(=O)NCc1cc(-c2cc(C(F)(F)F)n(CCC(C)(C)C)n2)ccc1Cl [Cmpd 101] | 98* % | 99* % |  | 100* % | 95* % |  | 0 |  |  | 0 |  |  |
| COC(=O)NCc1cc(-c2ccn(-c3nc(C(C)C)ns3)n2)ccc1Cl [Cmpd 104] | 100* % | 100* % |  | 100* % | 100* % |  | 0 |  |  | 40 |  |  |
| COC(=O)NCc1cc(-c2ccn(-c3nc(C)ns3)n2)ccc1Cl [Cmpd 105] |  | 100* % | 90* % | 100* % | 99* % |  | 0 | 51 |  |  |  |  |
| COC(=O)NCc1cc(-c2ccn(-c3ccc(OC)cc3)n2)ccc1Cl [Cmpd 106] | 98* % | 100* % | 92* % | 100* % | 100* % |  | 0 |  |  |  |  |  |
| COC(=O)NCc1cc(-c2ccn(-c3cccc(OC)c3)n2)ccc1Cl [Cmpd 107] | 100* % | 100* % | 99* % | 100* % | 99* % |  | 89 |  |  |  |  |  |
| COC(=O)NCc1cc(-c2ccn(-c3ccc(C(=O)OC)cc3)n2)ccc1Cl [Cmpd 108] |  |  |  |  | 98* % |  | 0 | 0 | 86 | 28 | 95 |  |
| COC(=O)NCc1cc(-c2ccn(-c3ccc(C)cc3)n2)ccc1Cl [Cmpd 109] | 98* % | 100* % | 100* % | 100* % | 99* % | 92* % |  |  |  |  |  |  |
